For 20 compounds, inhibition results are on record in US8263598B2, “Substituted sulfonamide compounds” (Gruenenthal GmbH, priority 2008, dated 2012).

SMILES strings stand for the structures.

Broadly, the inhibition is the drop in the measured response relative to a control, in per cent.

The target in assay [1] is T1, human B1R receptor (hB1R) (Homo sapiens, UniProt P46663).
T1 construct: host or cells: CHO K1 cells
T1 sequence (P46663 1-353): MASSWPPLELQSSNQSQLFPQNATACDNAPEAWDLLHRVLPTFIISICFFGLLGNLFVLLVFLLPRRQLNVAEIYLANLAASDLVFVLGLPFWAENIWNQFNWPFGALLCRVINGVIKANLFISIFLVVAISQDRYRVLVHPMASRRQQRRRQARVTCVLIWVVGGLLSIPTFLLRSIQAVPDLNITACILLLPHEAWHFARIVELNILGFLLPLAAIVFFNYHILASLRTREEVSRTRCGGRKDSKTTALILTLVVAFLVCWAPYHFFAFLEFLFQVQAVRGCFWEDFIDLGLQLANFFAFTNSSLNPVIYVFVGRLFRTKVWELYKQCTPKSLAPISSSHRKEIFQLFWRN
Kind of assay: FLIPR Ca2+ assay on human bradykinin 1 receptor (CHO K1 hB1R cells). The format is cell-based. The note with it: test substance 10 μM; CHO K1 cells with human B1R gene; agonist Lys-Des-Arg9-bradykinin 0.5 nM; compared to maximum achievable inhibition. The essentials:
(§1)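 CHO K1 cells stably expressing human or rat B1R were loaded with Fluo-4 and tested at 10 μM compound. Ca²⁺ signal was read in FLIPR as % activation versus agonist. After 10 min, agonist was added (hB1R: Lys-Des-Arg9-bradykinin 0.5 nM; rB1R: Des-Arg9-bradykinin 100 nM), and % inhibition was taken relative to maximum achievable inhibition.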

The target in assay [2] is T2, B1R receptor of rats (rB1R) (Rattus norvegicus, UniProt P97583).
T2 construct: host or cells: CHO K1 cells
T2 sequence (P97583 1-337): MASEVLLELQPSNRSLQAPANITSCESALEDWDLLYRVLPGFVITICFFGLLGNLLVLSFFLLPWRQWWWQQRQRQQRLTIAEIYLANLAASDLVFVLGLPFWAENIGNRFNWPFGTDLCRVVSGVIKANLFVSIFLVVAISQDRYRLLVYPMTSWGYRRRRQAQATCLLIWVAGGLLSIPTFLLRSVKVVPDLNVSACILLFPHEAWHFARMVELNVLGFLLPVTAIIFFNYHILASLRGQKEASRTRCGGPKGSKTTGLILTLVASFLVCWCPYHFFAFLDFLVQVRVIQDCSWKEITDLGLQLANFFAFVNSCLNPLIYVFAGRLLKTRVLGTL
The assay is described as follows: FLIPR Ca2+ assay on rat bradykinin 1 receptor (CHO K1 rB1R cells). It is filed as cell-based. Particulars: test substance 10 μM; CHO K1 cells with B1R gene of rats; agonist Des-Arg9-bradykinin 100 nM; compared to maximum achievable inhibition. The essentials:
as §1

Consider `COc1ccc(C2c3cccn3CCN2C(=O)COCCN(CC(C)C)S(=O)(=O)c2c(C)cc(OC)c(C)c2C)cc1` (stereo not shown) [Example 22, N-isobutyl-4-methoxy-N-(2-(2-(1-(4-methoxyphenyl)-3,4-dihydropyrrolo[1,2-a]pyrazin-2(1H)-yl)-2-oxoethoxy)ethyl)-2,3,6-trimethylbenzenesulfonamide], for which the values for the inhibition at 10 µM in assay [1] and in assay [2] were 53% and 97%, respectively.

As to `COc1cc(C)c(S(=O)(=O)N(C)CCOCC(=O)N2CCn3cccc3C2c2ccc(C)c(C)c2)c(C)c1C` (stereo not shown) [Example 86, N-(2-(2-(1-(3,4-dimethylphenyl)-3,4-dihydropyrrolo[1,2-a]pyrazin-2(1H)-yl)-2-oxoethoxy)ethyl)-4-methoxy-N,2,3,6-tetramethylbenzenesulfonamide], the results for the inhibition at 10 µM in assay [1] and in assay [2] were 91% and 71%, respectively.

For the compound `COc1cc(C)c(S(=O)(=O)N(CCOCC(=O)N2CCn3c(CN4CCCC4)ccc3C2c2ccccc2)Cc2ccccc2)c(C)c1` (stereo not shown) [Example 127, N-benzyl-4-methoxy-2,6-dimethyl-N-(2-(2-oxo-2-(1-phenyl-6-(pyrrolidin-1-ylmethyl)-3,4-dihydropyrrolo[1,2-a]pyrazin-2(1H)-yl)ethoxy)ethyl)benzene-sulfonamide], the inhibition at 10 µM in assay [1] was 99%; in assay [2], 102%.

For `CCC1c2ccc(CN(C)C)n2CCN1C(=O)COCCN(Cc1ccccc1)S(=O)(=O)c1c(C)cc(OC)cc1C` (stereo not shown) [Example 131, N-benzyl-N-(2-(2-(6-((dimethylamino)methyl)-1-ethyl-3,4-dihydropyrrolo[1,2-a]pyrazin-2(1H)-yl)-2-oxoethoxy)ethyl)-4-methoxy-2,6-dimethylbenzene-sulfonamide], the inhibition at 10 µM in assay [1] and in assay [2] was 101% in each case.

With `COc1cc(C)c(S(=O)(=O)N(CCOCC(=O)N2CCn3cccc3C2c2cccs2)Cc2ccccc2)c(C)c1` (stereo not shown) [Example 50, N-benzyl-4-methoxy-2,6-dimethyl-N-(2-(2-oxo-2-(1-(thiophen-2-yl)-3,4-dihydropyrrolo[1,2-a]pyrazin-2(1H)-yl)ethoxy)ethyl)benzenesulfonamide], the inhibition at 10 µM is 48% in assay [1] and 100% in assay [2].

`COc1cc(C)c(S(=O)(=O)N(CCOCC(=O)N2CCn3cccc3C2C(C)C)Cc2ccccc2)c(C)c1C` (stereo not shown) [Example 124, N-benzyl-N-(2-(2-(1-isopropyl-3,4-dihydropyrrolo[1,2-a]pyrazin-2(1H)-yl)-2-oxoethoxy)ethyl)-4-methoxy-2,3,6-trimethylbenzenesulfonamide]: the inhibition at 10 µM in assay [1] is 58%; in assay [2], 96%.

As to `COc1cc(C)c(S(=O)(=O)N(C)CCOCC(=O)N2CCn3c(ccc3-c3cccnc3)C2)c(C)c1` [Example 166, 4-Methoxy-N,2,6-trimethyl-N-(2-(2-oxo-2-(6-(pyridin-3-yl)-3,4-dihydropyrrolo[1,2-a]pyrazin-2(1H)-yl)ethoxy)ethyl)benzenesulfonamide], the inhibition at 10 µM in assay [1] was 100%; in assay [2] it was 99%.

With `Cc1cc(C)c(S(=O)(=O)N(C)CCOCC(=O)N2CCn3c(CN(C)C)ccc3C2c2ccccc2)c(C)c1` (stereo not shown) [Example 139, N-(2-(2-(6-((dimethylamino)methyl)-1-phenyl-3,4-dihydropyrrolo[1,2-a]pyrazin-2(1H)-yl)-2-oxoethoxy)ethyl)-N,2,4,6-tetramethylbenzenesulfonamide], the values for the inhibition at 10 µM in assay [1] and in assay [2] were 102% and 103%, respectively.

For `CCCC1c2cccn2CCN1C(=O)COCCN(Cc1ccccc1)S(=O)(=O)c1c(C)cc(OC)c(C)c1C` (stereo not shown) [Example 123, N-benzyl-4-methoxy-2,3,6-trimethyl-N-(2-(2-oxo-2-(1-propyl-3,4-dihydropyrrolo[1,2-a]pyrazin-2(1H)-yl)ethoxy)ethyl)benzenesulfonamide], the inhibition at 10 µM stood at 41% in assay [1] and 86% in assay [2].

Regarding `CCCC1c2cccn2CCN1C(=O)COCCN(Cc1ccccc1)S(=O)(=O)c1c(C)cc(OC)cc1C` (stereo not shown) [Example 154, N-benzyl-4-methoxy-2,6-dimethyl-N-(2-(2-oxo-2-(1-propyl-3,4-dihydropyrrolo[1,2-a]pyrazin-2(1H)-yl)ethoxy)ethyl)benzenesulfonamide], the inhibition at 10 µM in assay [1] came to 23%; in assay [2] it was 87%.

Turning to `Cc1cc(C)c(S(=O)(=O)N(C)CCOCC(=O)N2CCn3cccc3C2c2ccc(C(F)(F)F)cc2F)c(C)c1` (stereo not shown) [Example 77, N-(2-(2-(1-(2-fluoro-4-(trifluoromethyl)phenyl)-3,4-dihydropyrrolo[1,2-a]pyrazin-2(1H)-yl)-2-oxoethoxy)ethyl)-N,2,4,6-tetramethylbenzenesulfonamide], the inhibition at 10 µM in assay [1] is 71%; in assay [2] it was 53%.

In the case of `CCCC1c2cccn2CCN1C(=O)COCCN(C)S(=O)(=O)c1c(C)cc(C)cc1C` (stereo not shown) [Example 146, N,2,4,6-tetramethyl-N-(2-(2-oxo-2-(1-propyl-3,4-dihydropyrrolo[1,2-a]pyrazin-2(1H)-yl)ethoxy)ethyl)benzenesulfonamide], the inhibition at 10 µM in assay [1] and in assay [2] was 102% throughout.

For `Cc1cc(C)c(S(=O)(=O)N(C)CCOCC(=O)N2CCn3cccc3C2c2ccc(Cl)nc2)c(C)c1` (stereo not shown) [Example 68, N-(2-(2-(1-(6-chloropyridin-3-yl)-3,4-dihydropyrrolo[1,2-a]pyrazin-2(1H)-yl)-2-oxoethoxy)ethyl)-N,2,4,6-tetramethylbenzenesulfonamide], the figures for the inhibition at 10 µM in assay [1] and in assay [2] were 101% and 100%, respectively.

As for `COc1cc(C)c(S(=O)(=O)N(CCOCC(=O)N2CCn3cccc3C2c2ccc(C(C)(C)C)cc2)Cc2ccccc2)c(C)c1` (stereo not shown) [Example 51, N-benzyl-N-(2-(2-(1-(4-tert-butylphenyl)-3,4-dihydropyrrolo[1,2-a]pyrazin-2(1H)-yl)-2-oxoethoxy)ethyl)-4-methoxy-2,6-dimethylbenzenesulfonamide], the results for the inhibition at 10 µM in assay [1] and in assay [2] were 58% and 85%, respectively.

For `CCCC1c2cccn2CCN1C(=O)COCCN(CC(C)C)S(=O)(=O)c1c(C)cc(OC)c(C)c1C` (stereo not shown) [Example 101, N-isobutyl-4-methoxy-2,3,6-trimethyl-N-(2-(2-oxo-2-(1-propyl-3,4-dihydropyrrolo[1,2-a]pyrazin-2(1H)-yl)ethoxy)ethyl)benzenesulfonamide], the inhibition at 10 µM in assay [1] came to 91%; in assay [2], 102%.

On to `COc1cc(C)c(S(=O)(=O)N(C)CCOCC(=O)N2CCn3cccc3C2c2ccc(C)c(C)c2)c(C)c1` (stereo not shown) [Example 58, N-(2-(2-(1-(3,4-dimethylphenyl)-3,4-dihydropyrrolo[1,2-a]pyrazin-2(1H)-yl)-2-oxoethoxy)ethyl)-4-methoxy-N,2,6-trimethylbenzenesulfonamide], for which the inhibition at 10 µM in assay [1] was determined as 102%; in assay [2], 97%.

Take `COc1cc(C)c(S(=O)(=O)N(CCOCC(=O)N2CCn3cccc3C2C(C)C)CC(C)C)c(C)c1C` (stereo not shown) [Example 102, N-isobutyl-N-(2-(2-(1-isopropyl-3,4-dihydropyrrolo[1,2-a]pyrazin-2(1H)-yl)-2-oxoethoxy)ethyl)-4-methoxy-2,3,6-trimethylbenzenesulfonamide]: the inhibition at 10 µM in assay [1] turned out to be 96%; in assay [2], 102%.

Take `COc1cc(C)c(S(=O)(=O)N(CCOCC(=O)N2CCn3ccnc3C2)Cc2ccccc2)c(C)c1C` [Example 43, N-benzyl-N-(2-(2-(5,6-dihydroimidazo[1,2-a]pyrazin-7(8H)-yl)-2-oxoethoxy)ethyl)-4-methoxy-2,3,6-trimethylbenzenesulfonamide]: the inhibition at 10 µM was 33% in assay [1] and 73% in assay [2].

Take `CCC1c2ccc(CN(C)C)n2CCN1C(=O)COCCN(CC(C)C)S(=O)(=O)c1c(C)cc(OC)c(C)c1C` (stereo not shown) [Example 99, N-(2-(2-(6-((dimethylamino)methyl)-1-ethyl-3,4-dihydropyrrolo[1,2-a]pyrazin-2(1H)-yl)-2-oxoethoxy)ethyl)-N-isobutyl-4-methoxy-2,3,6-trimethylbenzene-sulfonamide]: the inhibition at 10 µM in assay [1] worked out at 102%; in assay [2], 101%.

With `COc1cc(C)c(S(=O)(=O)N(C)CCOCC(=O)N2CCn3cccc3C2c2ccc(C(F)(F)F)cc2F)c(C)c1` (stereo not shown) [Example 63, N-(2-(2-(1-(2-fluoro-4-(trifluoromethyl)phenyl)-3,4-dihydropyrrolo[1,2-a]pyrazin-2(1H)-yl)-2-oxoethoxy)ethyl)-4-methoxy-N,2,6-trimethylbenzene-sulfonamide], the inhibition at 10 µM in assay [1] turned out to be 102%; in assay [2], 100%.
